Patent US10632181B2, “Composition, containing RGD motif-containing peptide or fragment thereof, for treating burns and glaucoma, alleviating skin wrinkles, and promoting hair growth” (HUONS CO., LTD., priority 2014, dated 2020)
Positions of bridges follow the written chain, without caps; N, C: chain ends. No end group written: not given here.

What was measured:
[1] = test system: hair growth of C57BL/6 mouse; test: Hair growth test: hair growing area; format: in vivo
Experimental: This test was conducted to assess the influence on hair growth of C57BL/6 mouse when 4 types of test substances, HU024 (SEQ ID NO:2), HU025 (SEQ ID NO:3), HU026 (SEQ ID NO:4), and HU027 (SEQ ID NO:5), were applied to the skin for 14 days.
The group design was set to negative control (sterile water for injection G1), test substance HU024 (SEQ ID NO:2) 20 ug/head/day (G2), test substance HU024 (SEQ ID NO:2) 60 ug/head/day (G3), test substance HU025 (SEQ ID NO:3) 20 ug/head/day (G4), test substance HU025 (SEQ ID NO:3) 60 ug/head/day (G5), test substance HU026 (SEQ ID NO:4) 20 ug/head/day (G6), test substance HU026 (SEQ ID NO:4) 60 ug/head/day (G7), test substance HU027 (SEQ ID NO:5) 20 ug/head/day (G8), test substance HU027 (SEQ ID NO:5) 60 ug/head/day (G9) and positive control minoxyl 3% (G10) administered groups. Each group had 10 animals.
After the animal was put under anesthesia using zoletil (1 mL/kg, i.p), the back of the animal was primarily shaved using a depilator, and Veet depilatory was evenly applied on the back. After about 5 minutes, the applied site was cleaned up using gauze moistened with sterile water for injection. Only animal whose shaved back was scarlet in color was used for group separation. The test substance was applied to the same site daily once per day, 7 times per week for 14 days, and the test substance was evenly applied to the shaved site (on the back) by rubbing with a glass rod about 10 times.
The hair growing area (%) relative to the test substance-applied area was measured and determined, and Image analyzer program (Image Pro Plus ver. 6.3, Cybermetics, USA) was used to measure. […] Imaging was performed together with the measurements on the date when the hair area was measured. On the next day after the end of application, the animals were killed by CO2 gas, and hair on the hair growing area was removed by a depilator and hair weight was measured.
The measurement results were analyzed using SPSS (ver. 10.1K), Duncan t-test for weight changes was conducted through one-way analysis of variance, hair weight was compared between groups using Student's t-test, and hair growing area was compared between groups through nonparametric multiple comparison procedures Whitney-Mann methods. P<0.05 was determined to be statistically significant.

[2] = Burn treatment test: body weight and abnormal syndrome; format: in vivo, SD (Sprague-Dawley) rats; conditions: for BODY WEIGHTS: skin
Experimental: (§1) The experiment was carried out with 55 male SD (Sprague-Dawley) rats that were divided into […] groups: 5 rats for normal group (1 group, G1), 9-10 rats for negative control (1 group, G2), 30 rats for experimental group (3 groups, 10 rats in each group, G3, G4, G5), and 9-10 rats for positive control (1 group, G6). In the remaining groups except normal group, burned male SD rats was used for experiment. After SD rats were anesthesized, 2-degree burns, 2 cm in diameter, were induced on the SD rats using an aluminum electric soldering iron.
(§2) Test substance HU022 (SEQ ID NO:1) (G3, G4, G5), normal saline solution (G2) and Fiblast (G6) were applied to the skin of the burned male SD rats repeatedly once a day seven times a week for 7 days. Fiblast was applied to control group (G6) in 10 μg/dose/head, and the experimental group was divided into 3 groups and test substance was applied to each group in 3.3 μg/dose/head (G3), 10 μg/dose/head (G4), and 30 μg/dose/head (G5).
(§3) With the measurement results, parametric comparison determined significance via Student's t-test and One-Way ANOVA, and significance testing relative to negative control was conducted. Furthermore, with the histopathology test results of burns, Kruskal-Wallis' H-test was conducted, and when significance between groups was identified, comparison between groups was performed through Mann-Whitney U-test. The computation program for statistics was SPSS 10.1 K. P<0.05 was determined to be statistically significant.

[3] = test system: 2-degree burns of male SD rats; test: Burn treatment test: burn wound area; format: in vivo, SD (Sprague-Dawley) rats
Experimental: as §1, §2
After burn was induced, imaging was performed before test substance was applied, and imaging was performed on 1st, 4th, 8th, 11th, and 15th days, and after imaging, test substance was applied and the applied site was covered with gauze and wrapped with tegaderm. Furthermore, images taken for measuring the burn wound area were analyzed using Image analyzer program.
as §3

[4] = test system: skin; test: Safety assessment of test product on skin; conditions: use for 4 weeks, dermatologist's physical examination
Experimental: Women aged 30-65 having wrinkles around eyes were tested. […] They had second and third visits at the interval of 2 weeks after the start of use, and at each visit, were required to respond to various types of assessment and investigation defined in the experiment.
Furthermore, safety assessment was performed, and for safety of clinical test product, in all subjects having used the test product at least once, abnormal responses found at the second week and fourth week after use and abnormal responses reported during the test period were all used as safety assessment data of the product.

HU024 (RPTRGDCDLPEFCPG; disulfide 7-13; listed as Homo sapiens)
HAIR AREA (%) ([1]; 20 ug/head/day, Day 1): 0.02 ± 0.01% | HAIR AREA (%) ([1]; 20 ug/head/day, Day 4): 0.06 ± 0.04% | HAIR AREA (%) ([1]; 20 ug/head/day, Day 7): 0.44 ± 0.19% | HAIR AREA (%) ([1]; 20 ug/head/day, Day 10): 7.55 ± 2.56% | HAIR AREA (%) ([1]; 20 ug/head/day, Day 14): 67.34 ± 9.03% | HAIR AREA (%) ([1]; 60 ug/head/day, Day 1): 0.04 ± 0.04% | HAIR AREA (%) ([1]; 60 ug/head/day, Day 4): 0.00 ± 0.00% | HAIR AREA (%) ([1]; 60 ug/head/day, Day 7): 0.85 ± 0.75% | HAIR AREA (%) ([1]; 60 ug/head/day, Day 10): 6.56 ± 3.04% | HAIR AREA (%) ([1]; 60 ug/head/day, Day 14): 55.69 ± 12.45%

HU022: polypeptide consisting of 452nd-509th amino acids of ADAM 15 (GenBank AAH14566.1), 58 amino acids; commercial product (EYEGENE Inc.)
BODY WEIGHTS ([2]; 3.3 μg/head/day, Day 1): 261.24 ± 10.05 g | BODY WEIGHTS ([2]; 3.3 μg/head/day, Day 8): 269.41 ± 17.57 g | BODY WEIGHTS ([2]; 3.3 μg/head/day, Day 15): 300.31 ± 20.36 g | BODY WEIGHTS ([2]; 10 μg/head/day, Day 1): 260.59 ± 9.27 g | BODY WEIGHTS ([2]; 10 μg/head/day, Day 8): 267.86 ± 5.20 g | BODY WEIGHTS ([2]; 10 μg/head/day, Day 15): 296.55 ± 8.86 g | BODY WEIGHTS ([2]; 30 μg/head/day, Day 1): 257.94 ± 9.23 g | BODY WEIGHTS ([2]; 30 μg/head/day, Day 8): 259.49 ± 15.34 g | BODY WEIGHTS ([2]; 30 μg/head/day, Day 15): 284.87 ± 17.06 g | abnormal syndrome after application ([2]; burned male SD rats, skin application): any abnormal syndrome was not observed | BURN WOUNDED AREA ([3]; 3.3 μg/head/day, Day 1): 4.8 ± 0.8 cm^2 | BURN WOUNDED AREA (%) ([3]; 3.3 μg/head/day, Day 1): 100.0 ± 16.3% | BURN WOUNDED AREA ([3]; 3.3 μg/head/day, Day 4): 3.8 ± 0.6 cm^2 | BURN WOUNDED AREA (%) ([3]; 3.3 μg/head/day, Day 4): 79.2 ± 13.571% | BURN WOUNDED AREA ([3]; 3.3 μg/head/day, Day 8): 2.9 ± 0.6 cm^2 | BURN WOUNDED AREA (%) ([3]; 3.3 μg/head/day, Day 8): 60.8 ± 11.9% | BURN WOUNDED AREA ([3]; 3.3 μg/head/day, Day 11): 2.5 ± 0.7 cm^2 | BURN WOUNDED AREA (%) ([3]; 3.3 μg/head/day, Day 11): 51.6 ± 15.7% | BURN WOUNDED AREA ([3]; 3.3 μg/head/day, Day 15): 1.9 ± 0.6 cm^2 | BURN WOUNDED AREA (%) ([3]; 3.3 μg/head/day, Day 15): 40.1 ± 12.8% | BURN WOUNDED AREA ([3]; 10 μg/head/day, Day 1): 4.3 ± 0.9 cm^2 | BURN WOUNDED AREA (%) ([3]; 10 μg/head/day, Day 1): 100.0 ± 23.0% | BURN WOUNDED AREA ([3]; 10 μg/head/day, Day 4): 3.6 ± 0.8 cm^2 | BURN WOUNDED AREA (%) ([3]; 10 μg/head/day, Day 4): 82.7 ± 18.0% | BURN WOUNDED AREA ([3]; 10 μg/head/day, Day 8): 2.9 ± 0.5 cm^2 | BURN WOUNDED AREA (%) ([3]; 10 μg/head/day, Day 8): 68.2 ± 12.3% | BURN WOUNDED AREA ([3]; 10 μg/head/day, Day 11): 2.4 ± 0.3 cm^2 | BURN WOUNDED AREA (%) ([3]; 10 μg/head/day, Day 11): 56.8 ± 7.7% | BURN WOUNDED AREA ([3]; 10 μg/head/day, Day 15): 2.2 ± 0.4 cm^2 | BURN WOUNDED AREA (%) ([3]; 10 μg/head/day, Day 15): 51.9 ± 8.9% | BURN WOUNDED AREA ([3]; 30 μg/head/day, Day 1): 5.2 ± 0.4 cm^2 | BURN WOUNDED AREA (%) ([3]; 30 μg/head/day, Day 1): 100.0 ± 7.0% | BURN WOUNDED AREA ([3]; 30 μg/head/day, Day 4): 3.5 ± 0.5 cm^2 | BURN WOUNDED AREA (%) ([3]; 30 μg/head/day, Day 4): 67.6 ± 9.3 % | BURN WOUNDED AREA ([3]; 30 μg/head/day, Day 8): 2.9 ± 0.3 cm^2 | BURN WOUNDED AREA (%) ([3]; 30 μg/head/day, Day 8): 55.9 ± 5.1% | BURN WOUNDED AREA ([3]; 30 μg/head/day, Day 11): 2.3 ± 0.1 cm^2 | BURN WOUNDED AREA (%) ([3]; 30 μg/head/day, Day 11): 43.9 ± 2.6% | BURN WOUNDED AREA ([3]; 30 μg/head/day, Day 15): 1.8 ± 0.4 cm^2 | BURN WOUNDED AREA (%) ([3]; 30 μg/head/day, Day 15): 35.6 ± 8.4% | abnormal response / skin irritation [4]: safe product not causing irritation to the skin
